Measured values: ChEMBL document CHEMBL1201862, “PubChem BioAssay data set” (2004)
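Assay format: 96-well plates, 48-hour exposure. GI50 = concentration required for 50% inhibition of growth.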 Active and inactive are the calls of the source. Cut-off read from the data, not from the text of the source: active = GI50 up to about 1.1 µM and inactive = higher.

Assays:
Experiment in all cases: inhibition of tumour cell growth, NCI panel, 48 h
MCF7 = system: MCF7
SK-MEL-2 = system: SK-MEL-2
SF-295 = system: SF-295
EKVX = system: EKVX
SK-MEL-28 = system: SK-MEL-28
SK-MEL-5 = system: SK-MEL-5
HT-29 = system: HT-29
Malme-3M = system: Malme-3M
HCT-116 = system: HCT-116
HOP-92 = system: HOP-92
UACC-62 = system: UACC-62
XF498 = system: XF498
M19-MEL = system: M19-MEL
LOX IMVI = system: LOX IMVI
NCI-H226 = system: NCI-H226
NCI/ADR-RES = system: NCI/ADR-RES
HCT-15 = system: HCT-15
OVCAR-4 = system: OVCAR-4
NCI-H460 = system: NCI-H460

Structure (SMILES)	GI50 (MCF7)	GI50 (SK-MEL-2)	GI50 (SF-295)	GI50 (EKVX)	GI50 (SK-MEL-28)	GI50 (SK-MEL-5)	GI50 (HT-29)	GI50 (Malme-3M)	GI50 (HCT-116)	GI50 (HOP-92)	GI50 (UACC-62)	GI50 (XF498)	GI50 (M19-MEL)	GI50 (LOX IMVI)	GI50 (NCI-H226)	GI50 (NCI/ADR-RES)	GI50 (HCT-15) [µM]	GI50 (OVCAR-4)	GI50 (NCI-H460)
COc1cc(C2c3cc4c(cc3[C@@H](Nc3cnc5ccccc5c3)C3COC(=O)[C@H]23)OCO4)cc(OC)c1O (some centres undefined)	0.0834 µM (active)	1.76 µM (inactive)	0.148 µM (active)	1.27 µM (inactive)	1.14 µM (inactive)	0.193 µM (active)	0.634 µM (active)	0.621 µM (active)	0.46 µM (active)	0.381 µM (active)	0.301 µM (active)	0.474 µM (active)	0.422 µM (active)	0.37 µM (active)	0.152 µM (active)	1.51 µM (inactive)	0.148	1.05 µM (active)	< 0.01 µM (active)
CC1(C)N=C(N)N=C(N)N1c1ccc(OCCCOc2ccccc2)c(Cl)c1	0.327 µM (active)	1.37 µM (inactive)	0.538 µM (active)	0.303 µM (active)	0.809 µM (active)	0.265 µM (active)	0.0161 µM (active)	0.49 µM (active)	0.026 µM (active)	0.409 µM (active)	0.472 µM (active)	< 0.01 µM (active)	0.147 µM (active)	0.0457 µM (active)	0.798 µM (active)	> 100 µM (inactive)	2.48	0.156 µM (active)	0.0457 µM (active)
C=C1C(=O)OC2C1CC1OC2C(C)CCC/C(C)=C\CCC1(C)O (centres undefined)	15.3 µM (inactive)	10.8 µM (inactive)	37.5 µM (inactive)	20.4 µM (inactive)	16.4 µM (inactive)	5.14 µM (inactive)	30.3 µM (inactive)	32.7 µM (inactive)	13.5 µM (inactive)	10.7 µM (inactive)	9.04 µM (inactive)	12 µM (inactive)	10.1 µM (inactive)	6.55 µM (inactive)	18.4 µM (inactive)	14.4 µM (inactive)	18.2	18.2 µM (inactive)	20.1 µM (inactive)
C[C@]12CC[C@H](O)C=C1CC[C@@H]1[C@@H]2CC[C@]2(C)C(c3ccc(=O)oc3)CC[C@]12O (some centres undefined)	0.015 µM (active)	0.0176 µM (active)	0.0134 µM (active)	0.0311 µM (active)	0.0266 µM (active)	0.0125 µM (active)	0.035 µM (active)	0.0135 µM (active)	0.0125 µM (active)	0.014 µM (active)	0.0154 µM (active)	0.0184 µM (active)	0.0129 µM (active)	0.0125 µM (active)	0.0375 µM (active)	0.0328 µM (active)	0.0175	0.0146 µM (active)	0.0132 µM (active)
CCN(CC)CCCNc1ncc(C)c2[nH]c3ccncc3c12	3.31 µM (inactive)	10.5 µM (inactive)	11.2 µM (inactive)	16.1 µM (inactive)	12.9 µM (inactive)	13.6 µM (inactive)	4.22 µM (inactive)	10.3 µM (inactive)	6.58 µM (inactive)	6.1 µM (inactive)	8.99 µM (inactive)	11.4 µM (inactive)	11.5 µM (inactive)	3.64 µM (inactive)	5.69 µM (inactive)	> 100 µM (inactive)	35.1	4.5 µM (inactive)	3.33 µM (inactive)
COC1=CC(=O)C=C(OC)C1=O [2,6-DIMETHOXYQUINONE]	17.7 µM (inactive)	6.55 µM (inactive)	13.3 µM (inactive)	5.69 µM (inactive)	21.8 µM (inactive)	20.9 µM (inactive)	27.4 µM (inactive)	20.2 µM (inactive)	6.49 µM (inactive)	4.16 µM (inactive)	5.33 µM (inactive)	2.99 µM (inactive)	4.22 µM (inactive)	5.14 µM (inactive)	1.55 µM (inactive)	5.01 µM (inactive)	31.6	7.43 µM (inactive)	23.7 µM (inactive)
